Publication PMC11024357 (Frontiers in Pharmacology, 2024)
Where two headings read alike, the source gives them in different places.

Experiments:
[1] = Tacrolimus blood pharmacokinetics without and with omeprazole 20 mg or famotidine 20 mg in kidney transplant patients (CMIA, non-compartmental analysis); format: in vivo, human; details: for Effect of single 20 mg co-administration on tacrolimus pharmacokinetic parameters: kidney transplant patients, day 2 vs day 1; for the mean C0/D ratio: pre-dose concentration / daily dose; for C0h, Q1: first quartile; for C0h, Q2: median; for C0h, Q3: third quartile; for concentration at 2 h / concentration at 6 h / AUC(0-t) / Cmax / AUC: human, whole blood, oral; for concentration at 2 h: read-out: C2; for concentration at 6 h: read-out: C6; for AUC(0-t): read-out: AUC0-6; for AUC: read-out: AUC2-6
Text: The study, randomized, non-blinded, comprised 24 stabilized adult patients between 1–12 months after kidney transplantation (NCT05061303), who received a kidney from a deceased donor. Inclusion criteria were time since kidney transplantation (1–12 months after kidney transplantation) and standard immunosuppressive regimen (tacrolimus, mycophenolate mofetil, prednisone/methylprednisolone/deflazacort). In this group, 2 individuals withdrew their informed consent and were excluded from study. Each randomized patient was admitted to the Department of Nephrology, Transplantology and Internal Diseases of Poznan University of Medical Sciences for 2 days (48 h). The study used the simple randomization method. One of the authors of the study (no the principal researcher) generated a randomized sequence for assigning patients to groups. The random component (computer-generated random numbers) was used in the sequence generation process. Figure 1 presented CONSORT flow chart. No participant changed the group during the study. Standard laboratory tests (creatinine, estimated glomerular filtration rate (eGFR), complete blood count, proteinuria, erythrocyturia) were performed during the first 2 days of participation in the study. In addition, the glomerular filtration rate (GFR) was calculated for each patient using The Chronic Kidney Disease Epidemiology Collaboration (CKD-EPI) creatinine equation to estimate GFR. […] Patients received tacrolimus once daily in the form of tacrolimus monohydrate prolonged-release tablets (Envarsus®, Chiesi Farmaceutici), registration numbers: EU/1/14/935/00, EU/1/14/935/004, EU/1/14/935/006, EU/1/14/935/007 or in the form of tacrolimus monohydrate prolonged-release hard capsules (Advagraf®, Astellas Pharma Europe), registration numbers: EU/1/07/387/001, EU/1/07/387/003, EU/1/07/387/011, EU/1/07/387/007. […] All patients before the start of the study achieved tacrolimus steady state. […] The results were used to obtain the values of pharmacokinetic parameters and statistical evaluation. No study-related adverse events were reported by patients, physicians, medical staff, or others during the study.
In order to establish the tacrolimus metabolism rate in the patients, the blood concentration normalized by the dose (C/D ratio) was calculated. The C0/D ratio can be calculated by dividing the tacrolimus pre-dose concentration (C0) by the corresponding daily tacrolimus dose (D). […] The fast metabolizers group included patients with a C/D ratio of <1.05 ng/mL*1/mg, whereas if the aforementioned ratio was ≥1.55 ng/mL*1/mg, the participants were described as slow metabolizers ([Tholking et al., 2014]).
Tacrolimus concentrations were determined using CMIA, by means of Alinity i analyser ([Mei et al., 2018]). Samples were stored frozen (−10°C or below) for no longer than 6 months. Each sample was thoroughly mixed prior to determining concentration, and 200 μL of each sample was pipetted into a centrifuge tube. Subsequently, the dispenser was filled with the appropriate volume of […] Tacrolimus Whole Blood Precipitation Reagent, followed by the removal of air bubbles from the dispenser. 200 μL of […] Tacrolimus Whole Blood Precipitation Reagent was added to the contents of the first centrifuge tube. Each individual tube was capped, mixed immediately after adding the reagent and centrifuged for 5–10 s. The tubes were then centrifuged again for 4 min. Each tube was uncapped and the supernatant was decanted (poured off) into a Graft Pre-Treatment Tube. They were then vortexed for 5–10 s and assayed for the concentrations of tacrolimus.
Calibration was performed in duplicate samples by testing Calibrators A, B, C, D, E and F. Control samples were prepared by mixing 150 μL of the patient sample and 150 μL of […] Tacrolimus Calibrator A. One sample for each control level was tested once every 24 h as a quality control test. […]

[2] = set-up: method as in Takahashi et al., 2007; details: ref Takahashi et al., 2007, cited from earlier work
[3] = no reference given; cited from earlier work
[4] = 2012, cited from earlier work
[5] = set-up: method as in Susal and Dohler, 2019; details: ref Susal and Dohler, 2019, cited from earlier work
[6] = set-up: method as in Summary of Product Characteristics; details: ref Summary of Product Characteristics; cited from earlier work
[7] = 0.0376 mg/kg, group II, no FA (day 1)
[8] = 0.0611 mg/kg, group I, no OM (day 1)
[9] = 20 mg, group II, FA 20 mg (day 2)
[10] = with omeprazole 20 mg (day 2) vs no omeprazole (day 1)

NC(N)=Nc1nc(CSCCC(N)=NS(N)(=O)=O)cs1 [famotidine]
Effect of single 20 mg co-administration on tacrolimus pharmacokinetic parameters [1]: no significant changes

C=CC[C@@H]1/C=C(\C)C[C@H](C)C[C@H](OC)[C@H]2O[C@@](O)(C(=O)C(=O)N3CCCC[C@H]3C(=O)O[C@H](/C(C)=C/[C@@H]3CC[C@@H](O)[C@H](OC)C3)[C@H](C)[C@@H](O)CC1=O)[C@H](C)C[C@@H]2OC [tacrolimus]
blood concentrations of tacrolimus ([2]; after switching omeprazole to oral rabeprazole 10 mg/day (day 21)): approximately 10 ng/mL
tacrolimus trough levels ([2]; on omeprazole, despite dose reductions from 17 to 9 mg/day): above 15 ng/mL
trough concentration of tacrolimus ([2]; post-transplant day 17, daily oral dose 17 mg, on ranitidine): 12.5 ng/mL
tacrolimus trough levels ([2]; post-transplant day 19, after start of intravenous omeprazole on day 18): 30.0 ng/mL
bound to plasma proteins [3]: approximately 99%
increase in tacrolimus concentrations after omeprazole administration ([4]; kidney transplant patient, ref Zhao WFM. et al.): more than four-fold increase
tacrolimus blood trough level (C0) ([4]; postoperative day 3, 9 mg twice daily, before omeprazole, ref Zhao W. et al.): 19.6 ng/mL
tacrolimus blood trough level (C0) ([4]; postoperative day 4, 9 mg twice daily, before omeprazole, ref Zhao W. et al.): 29.2 ng/mL
serum creatinine (acute nephrotoxicity) ([4]; postoperative day 6, at tacrolimus C0 92 ng/mL with omeprazole, ref Zhao W. et al.): 160 µM
tacrolimus blood trough level (C0) ([4]; postoperative day 6, dose reduced to 7 mg, omeprazole given on day 5, ref Zhao W. et al.): 92 ng/mL
the mean C0/D ratio ([1]; Group I (omeprazole group), mean ± SD): 2.02 ± 1.14 ng/mL*1/mg
the mean C0/D ratio ([1]; Group II (famotidine group), mean ± SD): 2.49 ± 0.76 ng/mL*1/mg
C2 ([1]; group I, 2 h, OM 20 mg (day 2)): 11.90 ± 5.03 ng/mL
AUC 0–6 normalized by the dose ([1]; group I, OM 20 mg (day 2)): 1308.01 ± 595.19 (ng × h/mL)/(mg/kg)
AUC 2–6 normalized by the dose ([1]; group I, OM 20 mg (day 2)): 939.13 ± 453.89 (ng × h/mL)/(mg/kg)
AUC0-6 ([1]; group I, no OM (day 1)): 54.23 ± 10.48 ng·h/mL
AUC 2–6 normalized by the dose ([1]; group I, no OM (day 1)): 832.98 ± 415.81 (ng × h/mL)/(mg/kg)
AUC 0–6 normalized by the dose ([1]; group II, FA 20 mg (day 2)): 1784.71 ± 447.89 (ng × h/mL)/(mg/kg)
AUC2-6 ([1]; group II, FA 20 mg (day 2)): 44.05 ± 11.28 ng·h/mL
AUC 2–6 normalized by the dose ([1]; group II, FA 20 mg (day 2)): 1268.57 ± 329.31 (ng × h/mL)/(mg/kg)
C0h, Q1 ([1]; group II, FA 20 mg (day 2)): Q1: 5.60 ng/mL
C0h, Q2 ([1]; group II, FA 20 mg (day 2)): Q2: 7.30 ng/mL
C0h, Q3 ([1]; group II, FA 20 mg (day 2)): Q3: 7.95 ng/mL
AUC 0–6 normalized by the dose ([1]; group II, no FA (day 1)): 1677.84 ± 358.32 (ng × h/mL)/(mg/kg)
AUC 2–6 normalized by the dose ([1]; group II, no FA (day 1)): 1196.79 ± 279.50 (ng × h/mL)/(mg/kg)
C0h, Q1 ([1]; group II, no FA (day 1)): Q1: 5.25 ng/mL
C0h, Q2 ([1]; group II, no FA (day 1)): Q2: 6.50 ng/mL
C0h, Q3 ([1]; group II, no FA (day 1)): Q3: 8.80 ng/mL
concentration at 2 h ([1]; 0.0376 mg/kg, group II, 2 h, no FA (day 1)): 10.3 ± 4.64 ng/mL
concentration at 6 h [1, 7]: 10.8 ± 3.16 ng/mL
AUC(0-t) [1, 7]: 59.1 ± 16.6 ng·h/mL
concentration at 2 h ([1]; 0.0611 mg/kg, group I, 2 h, no OM (day 1)): 9.4 ± 2.5 ng/mL
concentration at 6 h [1, 8]: 9.94 ± 3.03 ng/mL
Cmax ([1]; 0.0611 mg/kg, group I, no OM (day 1), mean ± SD): 11.2 ± 2.34 ng/mL
AUC [1, 8]: 38.7 ± 7.7 ng·h/mL
Cmax ([1]; 20 mg, group I, OM 20 mg (day 2), mean ± SD): 13.1 ± 4.3 ng/mL
AUC(0-t) ([1]; 20 mg, group I, OM 20 mg (day 2)): 63.1 ± 19.5 ng·h/mL
Cmax [1, 9]: 13.1 ± 4.17 ng/mL
AUC(0-t) [1, 9]: 62.1 ± 15.9 ng·h/mL
concentration at 2 h ([1]; group I, 2 h, OM 20 mg (day 2)): 11.9 ± 1.59 ng/mL
concentration at 2 h ([1]; group I, 2 h, no OM (day 1)): 9.4 ± 0.79 ng/mL
concentration at 6 h ([1]; group I, OM 20 mg (day 2)): 10.3 ± 1.99 ng/mL
concentration at 2 h ([1]; group II, 2 h, FA 20 mg (day 2)): 11 ± 4.27 ng/mL
concentration at 6 h ([1]; group II, FA 20 mg (day 2)): 11 ± 3.53 ng/mL
AUC ([1]; group I, OM 20 mg (day 2)): 44.3 ± 11.5 ng·h/mL
Cmax ([1]; group II, no FA (day 1)): 12.7 ± 4.39 ng/mL
AUC ([1]; group II, no FA (day 1)): 42 ± 11.5 ng·h/mL
Increase of tacrolimus AUC0-6 [1, 10]: 16.30%
Increase of tacrolimus AUC0-6 normalized by the dose [1, 10]: 12.88%
Increase of tacrolimus AUC2-6 [1, 10]: 14.58%
Increase of tacrolimus AUC2-6 normalized by the dose [1, 10]: 12.74%
Increase of tacrolimus C2h [1, 10]: 26.60%
6-year survival of the kidney graft ([5]; tacrolimus C0 4.0–4.9 ng/mL): 86.5%
6-year survival of the kidney graft ([5]; tacrolimus C0 5.0–6.9 ng/mL in the first 3 years after transplantation): over 88%
6-year survival of the kidney graft ([5]; tacrolimus C0 7.0–8.9 ng/mL in the first 3 years after transplantation): over 88%
6-year survival of the kidney graft ([5]; tacrolimus C0 <4 ng/mL): 82.6%
6-year survival of the kidney graft ([5]; tacrolimus C0 ≥9 ng/mL): 87.5%

COc1ccc2[nH]c([S+]([O-])Cc3ncc(C)c(OC)c3C)nc2c1 (stereo not shown) [omeprazole]
elimination half-life in the body [6]: shorter than an hour
bound to plasma proteins [3]: approximately 95%
Effect of single 20 mg co-administration on tacrolimus pharmacokinetic parameters [1]: significantly increases blood exposure of tacrolimus
